In a melting point compilation (Tetko et al.; mined from patent text by program, amines drawn as free bases though some values may be those of a salt):

| SMILES | melting point [°C] |
| --- | --- |
| CSC(=N)Nc1ccc(Cl)c(Cl)c1 | 166 |
| CCCN(CCC)c1c([N+](=O)[O-])cc(S(=O)(=O)N(C)C(=O)OC)cc1[N+](=O)[O-] | 90 to 94 |
| OCCN1CCN(CC2CNCCO2)CC1 (stereo unspecified) | 73 to 75.5 |
| COC(=O)c1cc(F)c(F)c2ccc(C)nc12 | 99 to 101 |
| COc1cc2cc(COC(C)=O)c(COC(C)=O)c(C)c2cc1OC | 130 to 131 |
| O=C(CO)Cc1ccc(Cl)cc1 | 53.5 |
| O=C1OCCN1c1cccc(CCBr)c1 | 73 to 75 |
| COC(=O)c1ccc(CC23CCCCN2C(=O)N(c2cc(Cl)cc(Cl)c2)C3=O)cc1 (stereo unspecified) | 51 |
| Cc1ccc2sc3cc(C(=O)Cl)ccc3c2c1 | 127 to 128 |
| CCNC(=O)c1cc(N)c([N+](=O)[O-])cc1OC | 235 to 239 |
| CC(=O)n1nc(CBr)c(Oc2cc(Cl)cc(Cl)c2)c1C | 111 to 113 |
| Oc1nc2cc(F)ccc2n2cnnc12 | > 300 |
| CCC[C@@H]1O[C@](/C=C/C2CC2)(C(F)(F)F)c2cc(Cl)ccc2NC1=O (relative stereo) | 165 to 167 |
| CCCn1c(=O)c2[nH]c([C@@H]3CC[C@H]4CCC[C@H]43)nc2n(CCC)c1=S (relative stereo) | 135 to 137 |
| Nc1cc2c(cc1N)OC(F)(Cl)C(F)(Cl)O2 (stereo unspecified) | 130 to 131 |
| CCCCNc1c(C(=O)OCC)cnc2onc(C)c12 | 60 |
| COc1cc(CC(=O)NCCOCc2ccc(C)c(C)c2)ccc1OCCN | 60 to 62 |

| SMILES | melting point [°C] |
| --- | --- |
| CC(C)(C)[Si](C)(C)O[C@H]1CC(=O)O[C@H](CO)C1 | 102 |
| ClCCN1C2C=C(c3ccc4ccccc4c3)CC1CC2 (stereo unspecified) | 122 to 123 |
| COCCOc1ccc(CCCO)c(Oc2ncc(C(F)(F)F)cc2Cl)c1 | 70 to 71 |
| CC(=O)C1CCC2C3CCC4CC(O)CCC4(C)C3C(O)CC12C (stereo unspecified) | 152 to 154 |
| CCOC(=O)c1c(CBr)n(C)c2cc(Br)c(OC(C)=O)cc12 | 179 to 180 |
| N#Cc1cccc(C(=O)c2ccc(S)cc2)c1 | 126 |
| CCCCCCCCCCCCCCCCCC(=O)Oc1cc(C(C)(C)C)c(O)c(C(C)(C)C)c1 | 35 to 39 |
| CCOCc1nc2cnc3cc(Br)cnc3c2n1CC(C)C | 115 to 116 |
| CNC(=S)C1c2cc([N+](=O)[O-])ccc2OC(C)(C)C1O (stereo unspecified) | 203 to 207 |
| O=c1[nH]ncc(Cl)c1-c1ccccc1 | 193 to 195 |
| Cc1cc2occc2cn1 | 55 to 56 |
| COC(=O)Cc1coc2c(O)cccc12 | 58 to 59 |
| COc1cc(CO)c([N+](=O)[O-])cc1OCCCCCCOC(C)=O | > 220 |
| CCCCOc1cc(CCS(=O)(=O)NC(=O)OCCC)n(Cc2ccc(Cl)cc2Cl)n1 | 92 to 94 |
| O=Cc1cc(OCCl)c(O)cc1[N+](=O)[O-] | 160 to 161 |
| O=C1c2ccccc2COc2ccc(CCC(=O)N(O)C3CCCCC3)cc21 | 146 to 147 |

The remaining lines, values ahead:

| melting point [°C] | SMILES |
| --- | --- |
| 109 to 111 | CCCCc1nc(Cl)c(COCc2ccccc2C(=O)O)n1Cc1ccc(-c2ccccc2-c2nnn[nH]2)cc1 |
| 242 to 245 | CC(C)CN1c2ccccc2C(C)(C)C12C=Nc1cc(-c3ccc(N4CCCC4)cc3)c3ccccc3c1O2 (stereo unspecified) |
| 102 to 105 | CCCCn1c(=O)c(NC(=O)Nc2cc(CO)ccc2C(C)(C)C)c(-c2cccc(OC)c2)c2cccnc21 |
| 183 to 185 | CCN(C(=O)COc1nc(-c2ccc(N)cc2)nc(C)c1C)c1ccccc1 |
| 144 to 145 | NC(=O)c1ccccc1-c1ccc2ccc(SCc3ccccc3)nc2n1 |
| 100 to 104 | CN1C(=O)CC[C@]2(C)c3ccc(-c4cccc5ncccc45)cc3CC[C@@H]12 |
| 119 to 120 | CC(C#N)(COc1ccc(Cl)cc1)S(=O)(=O)Cc1ccc(Cl)cc1 (stereo unspecified) |
| 214 to 216 | COc1ccc(-n2c(-c3ccc(SC)cc3)nc(SC)c(C#N)c2=O)cc1 |
| 111 | CCSc1cccc(OC(F)(F)F)c1S(=O)(=O)NC(=O)c1noc(C)n1 |
| 211 to 213 | CNC(=O)Cc1c(-c2ccccc2)nn2cccnc12 |
| 118 to 119 | CC(OC(=O)c1cc(-n2c(=O)cc(C(F)(F)F)n(C)c2=O)ccc1Cl)C1CC1 (stereo unspecified) |
| 220 to 222 | CNS(=O)(=O)c1ccc(Nc2cc(-n3ccc(C(F)(F)F)n3)c3ccccc3n2)cc1 |
| 106 to 107 | CN(CCN1CCOCC1)c1noc2cc(OC(=O)NCc3ccccc3)ccc12 |
| 169 to 170 | COc1ccnc(C(=O)N[C@H]2COC(=O)[C@H](Cc3ccccc3)[C@@H](OC(=O)C(C)C)[C@H](C)OC2=O)c1OCc1ccccc1 |
| 131 to 132 | CCOc1nn(-c2ccc(C(F)(F)F)cn2)cc1CCCOc1cccc(C(C)(C)C(=O)O)c1 |
| 102 to 104 | CCNC(=O)n1nc(Oc2ccc(N)c(C(F)(F)F)c2)cc1C |
| 198 to 200 | Clc1ccc2[nH]c3c(c2c1)CN(CCc1ccccn1)CC3 |
| 106 to 107 | OCc1cc2ccc3ccccc3c2o1 |
| 175 | Cc1ccc2c(c1)C=Cc1cc(C)ccc1C2c1cn(Cc2nc(C(=O)N[C@@H](CC(=O)O)C(=O)O)cs2)c(=O)[nH]c1=S |

| melting point [°C] | SMILES |
| --- | --- |
| 77 to 78 | CC(C)(C)NS(=O)(=O)c1ccccc1 |
| 271 to 273 | O=C(Nc1cccc2cc(C(=O)O)[nH]c12)c1cc(OCc2ccccc2F)cc(OCc2ccccc2F)c1 |
| 221 to 223 | COc1ccc(C(=O)/C=C/c2c(-c3ccc(F)cc3)nc3sccn23)cc1OC |
| 228 to 229 | CS(=O)(=O)c1ccc(-c2cc(C(F)(F)F)nn2-c2ccc(F)cc2)cc1F |
| 173 to 175 | NCCNc1ncc2ncnc(Nc3ccc(F)c(Cl)c3)c2n1 |
| 207 to 208 | Cn1c(-c2ccc([N+](=O)[O-])cc2)cnc1[C@H](Cc1ccccn1)N(C=O)c1cc2cc(F)ccc2o1 |
| 119 to 121 | CCCOc1ccnc2c1c(C(C)=O)cn2S(=O)(=O)c1ccccc1 |
| 125 to 127 | CNS(=O)(=O)c1ccc(Oc2ccncc2)cc1 |
| 168 to 169 | CCn1c(=O)n(CC)c2cc3c(N4CCN(C(=O)Nc5ccc(Oc6ccccc6)cc5)CC4)ncnc3cc21 |
| 75 to 77 | O=C(Nc1ccccc1)c1ccccn1 |
| 79 to 81 | O=C(Oc1cc(OC(=O)c2ccc(O)c(O)c2)c2ccccc2c1)c1ccc(O)c(O)c1 |
| 208 to 209 | CCc1c[nH]c(C2Cc3ccccc3N2C(=O)Nc2ccccc2[N+](=O)[O-])n1 (stereo unspecified) |
| 187 to 188 | O=C1CCN(Cc2cnc(Nc3n[nH]c4ccc(-c5ncccc5Cl)cc34)s2)CC1 |
| 222 to 224 | COc1ccc(C2=C(/C=C/C(=O)O)CCc3cc(OC)ccc32)cc1 |
| 146 | OC(c1ccccc1)(C1CC1)C(c1ccccc1Cl)n1ccnc1 (stereo unspecified) |
| 142 to 145 | COC(=O)c1c(C)nc2c(c1N)c1ccccc1n2Cc1ccc(OC)cc1 |
| 95 to 96 | Cc1ccc(S(=O)(=O)OCC(O)(CC(C)c2ccccc2)C(F)(F)F)cc1 (stereo unspecified) |
| 169 to 171 | Nc1c(C(=O)O)cnn1-c1ccc(C(F)(F)F)cc1 |
| 157 to 158 | O=C1N[C@H](Cc2ccc(C(F)(F)F)cc2)[C@H](c2ccc(F)c(F)c2)O1 (racemic) |
